test system: Huh7 cells that stably maintain a subgenomic HCV replicon (S22.3 cell-line); assay: Cell based HCV RNA replication assay (S22.3 replicon cells, real-time RT-PCR); conditions: Hepatitis C virus, Huh-7, 72 hours
Protocol: Huh7 cells that stably maintain a subgenomic HCV replicon were established as previously described (Lohman et al., 1999. Science 285: 110-113) and designated as the S22.3 cell-line. S22.3 cells were maintained in Dulbecco's Modified […] Medium (DMEM) supplemented with 10% FBS and 0.5 mg/mL neomycin (Standard Medium). During the assay, DMEM medium supplemented with 10% FBS, containing 0.5% DMSO and lacking neomycin was used (Assay Medium). 16 hours prior to compound addition, S22.3 cells are trypsinized and diluted to 100 000 cells/ml in Standard Medium. 100μL (10 000 cells) are distributed into each well of a 96-well plate. The plate was then incubated at 37° C. with 5% CO2 until the next day.
10 μL of test compound (in 100% DMSO) was added to 2 ml of Assay Medium for a final DMSO concentration of 0.5% and the solution was sonicated for 15 min and filtered through a […] Millipore Filter Unit. 900 μl was transferred into row A of a Polypropylene Deep-Well Titer Plate. Rows B to H, contain 400 μL aliquots of Assay Medium (containing 0.5% DMSO), and were used to prepare serial dilutions (1/2) by transferring 400 μl from row to row (no compound was included in row H).
Cell culture medium was aspirated from the 96-well plate containing the S22.3 cells. 175 μL of assay medium with the appropriate dilution of test compound was transferred from each well of the compound plate to the corresponding well of the cell culture plate (row H was used as the “No inhibition control”). The cell culture plate was incubated at 37° C. with 5% CO2 for 72 hours.
Following the 72 hour incubation period, the total cellular RNA was extracted from the S22.3 cells of the 96-well plate using the RNeasy 96 kit (Qiagen®, RNeasy Handbook. 1999.). Briefly, assay medium was completely removed from cells and 100 μL of RLT buffer (Qiagen®) containing 143 mM β-mercaptoethanol was added to each well of the 96-well cell-culture plate. The microplate was gently shaken for 20 sec. 100 μL of 70% ethanol was then added to each microplate well, and mixed by pipetting. The lysate was removed and applied to the wells of a RNeasy 96 (Qiagen®) plate that was placed on top of a Qiagen® Square-Well Block. The RNeasy 96 plate was sealed with tape and the Square-Well Block with the RNeasy 96 plate was loaded into the holder and placed in a rotor bucket of a 4K15C centrifuge. The sample was centrifuged at 6000 rpm (˜5600×g) for 4 min at room temperature. The tape was removed from the plate and 0.8 ml of Buffer RW1 (Qiagen® RNeasy 96 kit) was added to each well of the RNeasy 96 plate. The RNeasy 96 plate was sealed with a new piece of tape and centrifuged at 6000 rpm for 4 min at room temperature. The RNeasy 96 plate was placed on top of another clean Square-Well Block, the tape removed and 0.8 ml of Buffer RPE (Qiagen® RNeasy 96 kit) was added to each well of the RNeasy 96 plate. The RNeasy 96 plate was sealed with a new piece of tape and centrifuged at 6000 rpm for 4 min at room temperature. The tape was removed and another 0.8 ml of Buffer RPE (Qiagen® RNeasy 96 kit) was added to each well of the RNeasy 96 plate. The RNeasy 96 plate was sealed with a new piece of tape and centrifuged at 6000 rpm for 10 min at room temperature. Tape was removed, the RNeasy 96 plate was placed on top of a rack containing 1.2-mL collection microtubes. The RNA was eluted by adding 50 μL of RNase-free water to each well, sealing plate with a new piece of tape and incubated for 1 min at room temperature. The plate was then centrifuged at 6000 rpm for 4 min at room temperature. The elution step was repeated with a second volume of 50 μl RNase-free water. The microtubes with total cellular RNA are stored at −70° C.
RNA was quantified on the STORM® system (Molecular Dynamics®) using the RiboGreen® RNA Quantification Kit (Molecular Probes®). Briefly, the RiboGreen reagent was diluted 200-fold in TE (10 mM Tris-HCl pH=7.5, 1 mM EDTA). Generally, 50 μL of reagent was diluted in 10 mL TE. […]

`CC1CCCC(C)C1n1c(-c2ccco2)nc2cc(C(=O)NC3(C(=O)Nc4ccc(C=CC(=O)O)cc4)CCCC3)ccc21` (mixture of isomers) [compound 2033] and `CC1CCCC(C)C1n1c(-c2ccccn2)nc2cc(C(=O)NC3(C(=O)Nc4ccc(C=CC(=O)O)cc4)CCCC3)ccc21` (mixture of isomers) [compound 2036] cannot be ordered by EC50: at most 5 µM for the first, at most 5 µM for the second.

`CC(NC(=O)c1ccc2c(c1)nc(-c1ccoc1)n2C1CCCCC1)C(=O)Nc1ccc(-c2ccc(C(=O)O)o2)cc1` (stereo not drawn) [compound 1060] and `CC(NC(=O)c1ccc2c(c1)nc(-c1ccoc1)n2C1CCCCC1)C(=O)Nc1ccc(C(=O)O)cc1` (stereo not drawn) [compound 1053] fall in the same range of EC50: 5 to 50 µM for the first, 5 to 50 µM for the second.

`CC(NC(=O)c1ccc2c(c1)nc(-c1ccoc1)n2C1CCCCC1)C(=O)Nc1cccc(-c2cccc(N)c2)c1` (stereo not drawn) [compound 1022] and `Cc1oc(-c2cccc(NC(=O)[C@@H](C)NC(=O)c3ccc4c(c3)nc(-c3ccoc3)n4C3CCCCC3)c2)cc1C(=O)O` [compound 1074] cannot be ordered by EC50: 5 to 50 µM for the first, at most 5 µM for the second.

`CC[C@@H](NC(=O)c1ccc2c(c1)nc(-c1ccoc1)n2C1CCCCC1)C(=O)Nc1ccc(/C=C/C(=O)O)cc1` [compound 1075, (E)-3-[4-((R)-2-{[1-(1-Cyclohexyl-2-furan-3-yl-1H-benzoimidazol-5-yl)-methanoyl]-amino}-butanoylamino)-phenyl]-acrylic acid] and `CCC[C@@H](NC(=O)c1ccc2c(c1)nc(-c1ccoc1)n2C1CCCCC1)C(=O)Nc1ccc(/C=C/C(=O)O)cc1` [compound 1076] cannot be ordered by EC50: 5 to 50 µM for the first, at most 5 µM for the second.

`CCN1CCC(NC(=O)c2ccc3c(c2)nc(-c2ccoc2)n3C2CCCCC2)(C(=O)Nc2ccc(-c3nc(C(=O)O)cs3)cc2)CC1` [compound 1108] and `CCN1CCC(NC(=O)c2ccc3c(c2)nc(-c2ccoc2)n3C2CCCCC2)(C(=O)Nc2ccc(-c3nc(C(N)=O)cs3)cc2)CC1` [compound 1109] cannot be ordered by EC50: at most 5 µM for the first, at most 5 µM for the second.

`C[C@H](NC(=O)c1ccc2c(c1)nc(-c1ccoc1)n2C1CCCCC1)C(=O)Nc1ccc(/C=C/C(=O)O)cc1` [compound 1056] and `C[C@@H](NC(=O)c1ccc2c(c1)nc(-c1ccoc1)n2C1CCCCC1)C(=O)Nc1ccc(/C=C/C(=O)O)cc1` [compound 1057] fall in the same range of EC50: 5 to 50 µM for the first, 5 to 50 µM for the second.

`O=C(O)/C=C/c1ccc(NC(=O)C2(NC(=O)c3ccc4c(c3)nc(-c3ccsc3)n4C3CCCCC3)CCCC2)cc1` [compound 2001] and `O=C(O)/C=C/c1ccc(NC(=O)C2(NC(=O)c3ccc4c(c3)nc(-c3cccs3)n4C3CCCCC3)CCCC2)cc1` [compound 2050] cannot be ordered by EC50: at most 5 µM for the first, at most 5 µM for the second.

`C[C@@H](NC(=O)c1ccc2c(c1)nc(-c1ccccc1)n2C1CCCCC1)C(=O)Nc1ccc(/C=C/C(=O)O)cc1` [compound 2003] and `C[C@@H](NC(=O)c1ccc2c(c1)nc(-c1ccccn1)n2C1CCCCC1)C(=O)Nc1ccc(/C=C/C(=O)O)cc1` [compound 2002] cannot be ordered by EC50: 5 to 50 µM for the first, at most 5 µM for the second.

`O=C(O)/C=C/c1ccc(NC(=O)C2(NC(=O)c3ccc4c(c3)nc(-c3ccccn3)n4C3CCCCC3)CCCC2)cc1` [compound 2005] and `O=C(O)/C=C/c1ccc(NC(=O)C2(NC(=O)c3ccc4c(c3)nc(-c3ccccn3)n4C3CCCC3)CCCC2)cc1` [compound 2012] cannot be ordered by EC50: at most 5 µM for the first, 5 to 50 µM for the second.

`CC(C)(C)OC(=O)N1CCC(NC(=O)c2ccc3c(c2)nc(-c2ccoc2)n3C2CCCCC2)(C(=O)Nc2ccc(/C=C/C(=O)O)cc2)CC1` [compound 1089] and `O=C(O)/C=C/c1ccc(NC(=O)C2(NC(=O)c3ccc4c(c3)nc(-c3ccoc3)n4C3CCCCC3)CC2)cc1` [compound 1070, (E)-3-(4-{[1-(1-{[1-(1-Cyclohexyl-2-furan-3-yl-1H-benzoimidazol-5-yl)-methanoyl]-amino}-cyclopropyl)-methanoyl]-amino}-phenyl)-acrylic acid] cannot be ordered by EC50: at most 5 µM for the first, 5 to 50 µM for the second.

`O=C(O)/C=C/c1ccc(NC(=O)C2(NC(=O)c3ccc4c(c3)nc(-c3ccco3)n4C3CCCCC3)CCCC2)cc1` [compound 2049] and `Cn1cccc1-c1nc2cc(C(=O)NC3(C(=O)Nc4ccc(/C=C/C(=O)O)cc4)CCCC3)ccc2n1C1CCCCC1` [compound 2048] cannot be ordered by EC50: at most 5 µM for the first, at most 5 µM for the second.

`O=C(O)/C=C/c1ccc(NC(=O)C2(NC(=O)c3ccc4c(c3)nc(-c3ccoc3)n4C3CCCCC3)CCNCC2)cc1` [compound 1100] and `O=C(O)/C=C/c1ccc(NC(=O)C2(NC(=O)c3ccc4c(c3)nc(-c3ccoc3)n4C3CCCC3)CCCC2)cc1` [compound 2013] cannot be ordered by EC50: at most 5 µM for the first, 5 to 50 µM for the second.

`O=C(O)/C=C/c1ccc(NC(=O)CNC(=O)c2ccc3c(c2)nc(-c2ccoc2)n3C2CCCCC2)cc1` [compound 1079] and `O=C(O)/C=C/c1ccc(NC(=O)C2(NC(=O)c3ccc4c(c3)nc(-c3ccoc3)n4C3CCCCC3)CCCCC2)cc1` [compound 1072] cannot be ordered by EC50: 5 to 50 µM for the first, at most 5 µM for the second.

`C[C@@H](NC(=O)c1ccc2c(c1)nc(-c1ccc[nH]1)n2C1CCCCC1)C(=O)Nc1ccc(/C=C/C(=O)O)cc1` [compound 2004] and `O=C(O)/C=C/c1ccc(NC(=O)C2(NC(=O)c3ccc4c(c3)nc(-c3ccc[nH]3)n4C3CCCCC3)CCCC2)cc1` [compound 2007] cannot be ordered by EC50: 5 to 50 µM for the first, at most 5 µM for the second.

`O=C(O)C=Cc1ccc(NC(=O)C2(NC(=O)c3ccc4c(c3)nc(-c3cccs3)n4C3CC4CCC3C4)CCCC2)cc1` (mixture of isomers) [compound 2019] and `O=C(O)C=Cc1ccc(NC(=O)C2(NC(=O)c3ccc4c(c3)nc(-c3ccco3)n4C3CC4CCC3C4)CCCC2)cc1` (mixture of isomers) [compound 2017] cannot be ordered by EC50: at most 5 µM for the first, at most 5 µM for the second.

`Cn1c(C(=O)O)cc2cc(NC(=O)C3(NC(=O)c4ccc5c(c4)nc(-c4ccoc4)n5C4CCCCC4)CCCNC3)ccc21` (stereo not drawn) [compound 1104] and `Cn1c(C(=O)O)cc2cc(NC(=O)C3(NC(=O)c4ccc5c(c4)nc(-c4ccoc4)n5C4CCCCC4)CCCC3)ccc21` [compound 1077] cannot be ordered by EC50: at most 5 µM for the first, at most 5 µM for the second.

`O=C(NC1(C(=O)Nc2ccc3nc(S)sc3c2)CCCC1)c1ccc2c(c1)nc(-c1ccoc1)n2C1CCCCC1` [compound 1078] and `Cc1c(C(=O)O)sc2ccc(NC(=O)C3(NC(=O)c4ccc5c(c4)nc(-c4ccoc4)n5C4CCCCC4)CCCC3)cc12` [compound 1099] cannot be ordered by EC50: at most 5 µM for the first, at most 5 µM for the second.

`CC1CCCCC1n1c(-c2ccoc2)nc2cc(C(=O)NC3(C(=O)Nc4ccc(C=CC(=O)O)cc4)CCCC3)ccc21` (stereo not drawn) [compound 2045] and `O=C(O)C=Cc1ccc(NC(=O)C2(NC(=O)c3ccc4c(c3)nc(-c3ccoc3)n4C3CC4CCC3C4)CCCC2)cc1` (mixture of isomers) [compound 2021] cannot be ordered by EC50: at most 5 µM for the first, at most 5 µM for the second.

`C[C@@H]1CCCC[C@H]1n1c(-c2ccccn2)nc2cc(C(=O)NC3(C(=O)Nc4ccc(/C=C/C(=O)O)cc4)CCCC3)ccc21` (racemic) [compound 2044] and `O=C(O)C=Cc1ccc(NC(=O)C2(NC(=O)c3ccc4c(c3)nc(-c3ccccn3)n4C3CC4CCC3C4)CCCC2)cc1` (mixture of isomers) [compound 2020] cannot be ordered by EC50: at most 5 µM for the first, at most 5 µM for the second.

`Cc1cc(NC(=O)C2(NC(=O)c3ccc4c(c3)nc(-c3ccoc3)n4C3CCCCC3)CCCC2)ccc1/C=C/C(=O)O` [compound 1088] and `C/C(=C\c1ccc(NC(=O)C2(NC(=O)c3ccc4c(c3)nc(-c3ccoc3)n4C3CCCCC3)CCCC2)cc1)C(=O)O` [compound 1083] cannot be ordered by EC50: at most 5 µM for the first, at most 5 µM for the second.

`Cc1cc(=O)oc2cc(NC(=O)[C@@H](C)NC(=O)c3ccc4c(c3)nc(-c3ccoc3)n4C3CCCCC3)ccc12` [compound 1026] and `Cc1nc(C(=O)O)sc1-c1ccc(NC(=O)C2(NC(=O)c3ccc4c(c3)nc(-c3ccoc3)n4C3CCCCC3)CCCC2)cc1` [compound 1091] cannot be ordered by EC50: at most 5 µM for the first, at most 5 µM for the second.
